Values quoted from earlier work in patent publication US5650415A, “Quinoline compounds” (Sugen, Inc., priority 1995, dated 1997).

Assays:
[1] = system: IGF-1R protein tyrosine kinase; conditions: Sepp-Lorenzino et al., Abstract, 1994; cited from earlier work
[2] = system: human breast cancer cells; conditions: Sepp-Lorenzino et al., Abstract, 1994; cited from earlier work

COC1C=CC=C(C)C(=O)NC2=CC(=O)C=C(C2=O)C(OC)C(C)CC(OC)C(OC)C(C)C=C(C)C1OC(N)=O (centres unmarked) [Herbimycin A]
inhibition of IGF-1R protein tyrosine kinase [1]: inhibit the IGF-1R protein tyrosine kinase | inhibition of cellular proliferation [2]: inhibit the IGF-1R protein tyrosine kinase and cellular proliferation in human breast cancer cells
